We go through two compounds from PMC6300691, “Enhancement of Heat Stability and Kinetic Parameters of the Maize Endosperm ADP-Glucose Pyrophosphorylase by Mutagenesis of Amino Acids in the Small Subunit With High B Factors” (Frontiers in Plant Science, 2018).

In one assay the target is T1, D242H (Zea mays, UniProt P55241+Q947C0, D242H).
T1 construct: BT2 variant with wild type SH2, E. coli, purified
The assay is described as follows: Activation constant from initial rates with varied 3-PGA (0-1 mM) at 2 mM ATP and 2 mM G-1-P, pH 7.4, 15 mM MgCl2, fitted to V = Vmin + Vmax*X/(Ka + X). The format is biochemical. The source says: (§1) All reactions were developed as above.

The target in a further assay is T2, E123G (Zea mays, UniProt P55241+Q947C0, E123G).
T2 construct: BT2 variant with wild type SH2, E. coli, purified
Described as above. The format is biochemical.
Excerpt: as §1

Assay [1] has as its target T3, E123G, R331K, K402R (BT2-BF) (Zea mays, UniProt P55241+Q947C0, E123G/R331K/K402R).
T3 construct: BT2-BF with wild type SH2 (SH2-WT/BT2-BF), E. coli, purified
T3 sequence (Q947C0 1-475 E123G/R331K/K402R): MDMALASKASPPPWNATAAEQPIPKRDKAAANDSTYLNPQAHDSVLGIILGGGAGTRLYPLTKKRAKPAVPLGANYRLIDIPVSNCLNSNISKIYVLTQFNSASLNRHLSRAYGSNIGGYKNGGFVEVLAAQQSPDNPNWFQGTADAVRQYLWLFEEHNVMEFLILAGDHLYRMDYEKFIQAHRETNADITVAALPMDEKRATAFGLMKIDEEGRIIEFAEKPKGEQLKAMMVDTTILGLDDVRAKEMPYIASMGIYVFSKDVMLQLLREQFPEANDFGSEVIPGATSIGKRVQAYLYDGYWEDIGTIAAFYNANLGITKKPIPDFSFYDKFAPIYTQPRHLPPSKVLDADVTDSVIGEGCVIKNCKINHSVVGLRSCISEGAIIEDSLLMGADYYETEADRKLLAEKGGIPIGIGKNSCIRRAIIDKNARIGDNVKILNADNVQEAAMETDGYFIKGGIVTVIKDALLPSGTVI
T3 sequence (P55241 46-516): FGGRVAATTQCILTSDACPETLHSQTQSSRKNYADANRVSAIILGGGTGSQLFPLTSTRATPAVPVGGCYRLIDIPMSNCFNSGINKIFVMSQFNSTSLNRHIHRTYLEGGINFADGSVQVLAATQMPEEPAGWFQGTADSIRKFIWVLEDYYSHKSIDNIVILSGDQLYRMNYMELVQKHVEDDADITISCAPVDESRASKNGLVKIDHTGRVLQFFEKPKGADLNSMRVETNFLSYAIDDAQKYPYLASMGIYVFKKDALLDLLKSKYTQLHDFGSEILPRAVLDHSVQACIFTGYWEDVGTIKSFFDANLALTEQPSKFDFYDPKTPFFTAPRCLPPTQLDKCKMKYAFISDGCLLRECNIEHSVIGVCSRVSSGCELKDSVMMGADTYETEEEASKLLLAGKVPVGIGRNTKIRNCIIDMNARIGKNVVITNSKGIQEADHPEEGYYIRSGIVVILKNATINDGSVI
The description is as above. In kind it is biochemical.
Excerpt: as §1

Assay [2] addresses T4, E123G, R331K, K402R, L404H (Zea mays, UniProt P55241+Q947C0, E123G/R331K/K402R/L404H).
T4 construct: BT2 quadruple variant with wild type SH2, E. coli, purified
The assay is described as above. In kind it is biochemical.
Excerpt: as §1

The target in another assay is T5, K403E (Zea mays, UniProt P55241+Q947C0, K403E).
T5 construct: BT2 variant with wild type SH2, E. coli, purified
The assay is described as above. In kind it is biochemical.
Excerpt: as §1

In another assay the target is T6, L404E (Zea mays, UniProt P55241+Q947C0, L404E).
T6 construct: BT2 variant with wild type SH2, E. coli, purified
The assay is described as above. In kind it is biochemical.
Excerpt: as §1

The target in another assay is T7, L404K (Zea mays, UniProt P55241+Q947C0, L404K).
T7 construct: BT2 variant with wild type SH2, E. coli, purified
The description is as above. The format is biochemical.
Excerpt: as §1

For another assay, the target named is T8, R331P (Zea mays, UniProt P55241+Q947C0, R331P).
T8 construct: BT2 variant with wild type SH2, E. coli, purified
The assay is described as above. In kind it is biochemical.
Excerpt: as §1

For another assay, the target named is T9, SH2-E/BT2-BF (Zea mays, UniProt P55241+Q947C0, E123G/N131R/T142F/A160T/Q261S/R331K/A396S/K402R/V416I/C424V/S444A).
T9 construct: SH2-E co-expressed with BT2-BF, E. coli, purified
T9 sequence (Q947C0 1-475 E123G/R331K/K402R): T3 sequence (Q947C0 1-475 E123G/R331K/K402R)
T9 sequence (P55241 46-516 N131R/T142F/A160T/Q261S/A396S/V416I/C424V/S444A): T3 sequence (P55241 46-516) with N86R, T97F, A115T, Q216S, A351S, V371I, C379V, S399A
Described as above. The format is biochemical.
Excerpt: as §1

The next assay addresses T10, SH2-ISM/BT2-BF (Zea mays, UniProt P55241+Q947C0, Q96G/E123G/D161G/R331K/K402R/A443R).
T10 construct: SH2-ISM co-expressed with BT2-BF, E. coli, purified
T10 sequence (Q947C0 1-475 E123G/R331K/K402R): T3 sequence (Q947C0 1-475 E123G/R331K/K402R)
T10 sequence (P55241 46-516 Q96G/D161G/A443R): T3 sequence (P55241 46-516) with Q51G, D116G, A398R
The assay is described as above. The format is biochemical.
Excerpt: as §1

The target of a further assay is wt (SH2-WT/BT2-WT) (Zea mays, UniProt P55241+Q947C0). The settings on record: read-out: Km (mM), varied substrate ATP, Pi inhibition in the absence of 3-PGA.

Numbering of substitutions follows the chain as printed.

T7 sequence (Q947C0 1-475 L404K, one chain of several): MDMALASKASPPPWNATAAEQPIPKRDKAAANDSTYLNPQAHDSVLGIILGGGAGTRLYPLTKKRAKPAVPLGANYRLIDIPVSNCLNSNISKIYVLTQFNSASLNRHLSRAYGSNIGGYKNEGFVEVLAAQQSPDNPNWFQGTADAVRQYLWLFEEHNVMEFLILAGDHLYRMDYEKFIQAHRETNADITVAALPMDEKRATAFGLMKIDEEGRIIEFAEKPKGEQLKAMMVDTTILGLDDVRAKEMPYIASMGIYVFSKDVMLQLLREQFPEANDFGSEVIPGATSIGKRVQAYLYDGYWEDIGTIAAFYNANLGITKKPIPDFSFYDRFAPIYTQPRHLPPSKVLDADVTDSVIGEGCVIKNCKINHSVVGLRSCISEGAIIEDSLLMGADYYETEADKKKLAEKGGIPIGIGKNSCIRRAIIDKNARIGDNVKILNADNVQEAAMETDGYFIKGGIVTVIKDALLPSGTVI
T4 sequence (Q947C0 1-475 E123G/R331K/K402R/L404H, one chain of several): as the sequence (Q947C0 1-475 L404K, one chain of several) above, with E123G, R331K, K402R, K404H counted along it
wt (SH2-WT/BT2-WT), sequence (Q947C0 1-475, one chain of several): as the sequence (Q947C0 1-475 L404K, one chain of several) above, with K404L counted along it
T1 sequence (Q947C0 1-475 D242H, one chain of several): as the sequence (Q947C0 1-475 L404K, one chain of several) above, with D242H, K404L counted along it
T8 sequence (Q947C0 1-475 R331P, one chain of several): as the sequence (Q947C0 1-475 L404K, one chain of several) above, with R331P, K404L counted along it
T5 sequence (Q947C0 1-475 K403E, one chain of several): as the sequence (Q947C0 1-475 L404K, one chain of several) above, with K403E, K404L counted along it
T2 sequence (Q947C0 entry or part of it E123G, one chain of several): as the sequence (Q947C0 1-475 L404K, one chain of several) above, with E123G, K404L counted along it
T6 sequence (Q947C0 1-475 L404E, one chain of several): as the sequence (Q947C0 1-475 L404K, one chain of several) above, with K404E counted along it
Experimental for wt (SH2-WT/BT2-WT): Pi inhibition was carried out in both the presence and absence of 3-PGA with the Pi and substrate concentrations listed below.
Pi inhibition patterns in the presence and absence of 3PGA were also determined. Pi inhibition patterns were obtained by varying one substrate at several fixed concentrations of Pi, while holding the co-substrate at constant sub-saturating levels.

For the compound `O=C(O)[C@H](O)COP(=O)(O)O` [3-PGA, 3-phosphoglycerate (3-phosphoglyceric acid)], the “3-PGA Ka (activation constant)” value on D242H is 0.077 ± 0.0077; at E123G, 0.090 ± 0.023; in assay [1] it was 0.060 ± 0.0097; in assay [2], 0.11 ± 0.017 +; at K403E it was 0.14 ± 0.015; on L404E, 0.15 ± 0.014. For the same compound, the “3-PGA Ka (activation constant)” value at L404K is recorded as 0.14 ± 0.047; on R331P, 0.094 ± 0.013; on SH2-E/BT2-BF, 0.36 ± 0.09; at SH2-ISM/BT2-BF, 0.23 ± 0.11.

As a reminder, the Km is the substrate concentration at which the rate is half of its maximum. Regarding `Nc1ncnc2c1ncn2[C@@H]1O[C@H](COP(=O)(O)OP(=O)(O)OP(=O)(O)O)[C@@H](O)[C@H]1O` [ATP, adenosine 5'-triphosphate], on wt (SH2-WT/BT2-WT), the Km came to 20.4 ± 10.1 mM.
